The text below walks through data of paper PMC6804466 (Acta Pharmaceutica Sinica. B, 2019).

For one data set, the system named is Mock-HEK293 cells. Kind of data set: Cytotoxicity of Imp, CCK-8 assay, Mock-HEK293 cells. It is filed as cell-based, human. The conditions noted are these: 24 h; for Effect of Cil or Prb on the survival rate of Mock cells treated with Imp: Imp 0–1 mmol/L plus the named inhibitor 200 μmol/L. (Tetrazolium dyes change colour on reduction, which living cells bring about.)

The next data set deals with hOAT3-HEK293 cells. Nature of the data set: Cytotoxicity of Imp, CCK-8 assay, hOAT3-HEK293 cells. It is filed as cell-based, human. To be noted: 24 h; for Survival rate of hOAT3-HEK293 cells with Imp in the presence of Cil or Prb: Imp 1 mmol/L plus the named inhibitor 200 μmol/L.
Data set [1] in a line: Imp-induced nephrotoxicity in rabbits. The class given is in vivo, rabbit. The conditions noted are these: for Imp-induced acute structural damage of rabbit kidney after coadministration: Imp 200 mg/kg i.v. plus Cil 200 mg/kg or Prb 50 mg/kg.
For data set [2] the following is noted: calculated from maximum plasma concentration and plasma protein binding.
For data set [3] the following is noted: cited from earlier work.
For data set [4] the following is noted: human; cited from earlier work.
The next data set addresses T1, hOAT1 (Homo sapiens, UniProt Q4U2R8).
T1 sequence (Q4U2R8 1-563): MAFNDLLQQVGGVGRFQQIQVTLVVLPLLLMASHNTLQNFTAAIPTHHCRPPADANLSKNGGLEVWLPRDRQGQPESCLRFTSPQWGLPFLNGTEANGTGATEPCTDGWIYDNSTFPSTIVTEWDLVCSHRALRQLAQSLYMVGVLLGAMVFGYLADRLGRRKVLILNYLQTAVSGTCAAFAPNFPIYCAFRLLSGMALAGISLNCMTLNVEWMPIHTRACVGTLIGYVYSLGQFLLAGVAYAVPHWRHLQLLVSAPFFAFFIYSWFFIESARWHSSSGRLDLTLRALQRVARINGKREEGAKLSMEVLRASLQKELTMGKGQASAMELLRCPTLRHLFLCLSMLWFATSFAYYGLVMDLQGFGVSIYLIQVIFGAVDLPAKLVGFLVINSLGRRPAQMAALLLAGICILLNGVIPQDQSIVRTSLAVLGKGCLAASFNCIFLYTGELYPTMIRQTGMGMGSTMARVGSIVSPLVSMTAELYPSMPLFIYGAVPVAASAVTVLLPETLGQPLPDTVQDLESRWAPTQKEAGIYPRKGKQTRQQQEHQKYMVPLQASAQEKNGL
Kind of data set: Imp uptake by hOAT1-HEK293 cells. It is filed as cell-based. To be noted: 100 μmol/L, 10 min, with or without Prb 200 μmol/L.

The test system of another data set is hOAT1-HEK293 cells. Kind of data set: Cytotoxicity of Imp, CCK-8 assay, hOAT1-HEK293 cells. The class given is cell-based, human. The conditions noted are these: Imp alone 1 mmol/L, 24 h.
The nature of data set [5]: Pharmacokinetics of Imp in rabbits. The class given is in vivo. To be noted: male, New Zealand white, rabbit, iv, 200 mg/kg.
Another data set relates to raOATs. Kind of data set: Imp uptake by rabbit primary proximal tubule cells. The conditions noted are these: Imp 100 μmol/L, 10 min, vs si-Control cells. The class given is cell-based.
Another data set has as its target T2, hOAT3 (Homo sapiens, UniProt Q8TCC7).
T2 sequence (Q8TCC7 1-542): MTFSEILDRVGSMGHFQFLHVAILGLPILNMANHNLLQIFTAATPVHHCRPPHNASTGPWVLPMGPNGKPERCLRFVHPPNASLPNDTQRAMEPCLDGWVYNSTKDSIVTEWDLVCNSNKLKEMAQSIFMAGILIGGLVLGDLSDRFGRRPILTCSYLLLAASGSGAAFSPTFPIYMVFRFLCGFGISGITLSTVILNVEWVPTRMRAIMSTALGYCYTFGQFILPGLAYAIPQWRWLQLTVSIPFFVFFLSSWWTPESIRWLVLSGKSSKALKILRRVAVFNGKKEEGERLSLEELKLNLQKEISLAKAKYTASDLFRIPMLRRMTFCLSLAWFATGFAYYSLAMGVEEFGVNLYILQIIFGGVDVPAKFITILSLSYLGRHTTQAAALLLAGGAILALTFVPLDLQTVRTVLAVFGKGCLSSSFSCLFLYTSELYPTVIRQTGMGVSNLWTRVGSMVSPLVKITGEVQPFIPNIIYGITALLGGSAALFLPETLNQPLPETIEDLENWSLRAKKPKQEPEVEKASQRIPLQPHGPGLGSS
To be noted: 100 μmol/L, 10 min, with or without Prb 200 μmol/L.

Setting [6] is: Imp 200 mg/kg i.v. with or without Cil 200 mg/kg or Prb 50 mg/kg, 48 h.

Each structure is given as a SMILES string. Marks after values point to notes of the source that are not given here.

The AUC(0-t) is the area under the concentration-time curve up to a stated or last time point. A low value points to less exposure. In general, clearance refers to the volume of plasma or blood freed of the substance per unit of time. Read a low clearance as inefficient removal. The half-life is the time in which the quantity being followed falls by half. Low values mean fast loss, high ones slow loss.

On to `CC1(C)C[C@@H]1C(=O)N/C(=C\CCCCSC[C@H](N)C(=O)O)C(=O)O` [Cil, cilastatin], for which the “Effect of Cil or Prb on the survival rate of Mock cells treated with Imp” value in the data set on Mock-HEK293 cells is reported as “little effect”. Besides, the “Survival rate of hOAT3-HEK293 cells with Imp in the presence of Cil or Prb” value with hOAT3-HEK293 cells is given as 66.3%. Besides, the “Imp-induced acute structural damage of rabbit kidney after coadministration” value in data set [1] (48 h) is recorded as “significantly reduced”. Moreover, the “Peak level of free Cil in human” value in data set [2] is on record as “about 140 μmol/L”. The “Maximum clinical plasma concentration of Cil” value in data set [3] (human) was 88 µg/mL. Moreover, the “Plasma protein binding of Cil” value in data set [4] is “approximately 40%”.
Take `C[C@@H](O)[C@H]1C(=O)N2C(C(=O)O)=C(SCCN=CN)C[C@H]12` [Imp, Imipenem]: the “Substrate of hOAT1 (uptake vs Mock cells, inhibited by Prb)” value on hOAT1 is “substrates of hOAT1 and hOAT3”. Further, in the data set on Mock-HEK293 cells (Imp alone 1 mmol/L), the “Survival rate of Mock-HEK293 cells” value is given as 85.8%. In addition, the “Survival rate of hOAT1-HEK293 cells” value in the data set with hOAT1-HEK293 cells amounted to 47.5%. Further, the “Survival rate of hOAT3-HEK293 cells” value in the data set on hOAT3-HEK293 cells (Imp alone 1 mmol/L) was found to be 27.2%. Further, the “Renal histology (HE and PAS staining)” value in [1] (Imp 200 mg/kg i.v. alone, 48 h) is “severe renal damage”. Besides, the “Body weight 0 h” value in data set [1] (Imp 200 mg/kg i.v. with or without Cil 200 mg/kg or Prb 50 mg/kg, 0 h (baseline)) is recorded as 2.87 ± 0.24 kg. In data set [1] (setting [6]), the “Body weight 48 h” value is recorded as 2.69 ± 0.24 kg, the Kidney weight stood at 13.2 ± 1.5 g and the Kidney/body weight ratio was 4.81 ± 0.29 ^a g/kg. In data set [5] (plasma), this molecule had an exposure AUC(0-t) of 289 ± 48.7 µg·h/mL, a clearance of 11.9 mL/min/kg and a half-life of 58 ± 4.2 min. The molecule also showed a CL renal in [5] (urine) of 2.78 mL/min/kg. In addition, in the data set with raOATs, the “Increase in intracellular level of Imp in rPTCs transfected with si-DHP-I” value is recorded as 30%. Besides, the “Substrate of hOAT3 (uptake vs Mock cells, inhibited by Prb)” value at hOAT3 is “substrates of hOAT1 and hOAT3”. Further, the “Renal excretion of Imp” value in [3] is around 70%.
Turning to `CCCN(CCC)S(=O)(=O)c1ccc(C(=O)O)cc1` [Prb, probenecid], the “Effect of Cil or Prb on the survival rate of Mock cells treated with Imp” value with Mock-HEK293 cells was “little effect”. In addition, the “Survival rate of hOAT3-HEK293 cells with Imp in the presence of Cil or Prb” value in the data set with hOAT3-HEK293 cells stood at 76.2%. In data set [1] (48 h), the “Imp-induced acute structural damage of rabbit kidney after coadministration” value is “significantly reduced”.
